The source of these data is US12410152B2, “Oxazole and thioazole-type cullin ring ubiquitin ligase compounds and uses thereof” (Proxygen GmbH, priority 2019, dated 2025).

In this test the target is T1, CDK12:CCNK and DDB1:CUL4B (Homo sapiens, UniProt Q16531+Q9NYV4).
T1 construct: expressed in transfected cells; host or cells: 293T (HEK) cells, transient transfection
The experiment in a line: Biotin proximity labeling with miniTurbo in live cells. It counts as cell-based. Particulars: HEK/293T cells with DDB1- or CDK12-mTurbo fusions, carfilzomib 10 μM. The method, then:
The direct, drug-induced association of CDK12:CCNK and DDB1:CUL4B was further assessed in a cellular assay based on enzyme-catalyzed proximity labeling via the efficient biotin ligase miniTurbo (mTurbo) (Branon, T. C. et al. Efficient proximity labeling in living cells and organisms with TurboID. Nat Biotechnol 36, 880-887, doi:10.1038/nbt.4201 (2018)) was performed. This assay enables recording dynamic changes in molecular proximity of an mTurbo-tagged bait protein by streptavidin purification of covalently biotinylated, proximal proteins. For this purpose, c-terminally tagged DDB1, or CDK12 mTurbo-fusions were transiently expressed in HEK cells. Cells were treated for one hour with C020772.1 or vehicle (DMSO) control, including a 30 minute biotin labeling pulse (FIG. 20 g, h). […] Vice-versa, DDB1 was only identified as CDK12 interactor after drug treatment, but was not purified after vehicle-control treatment (FIG. 20 h). […]
One 10-cm culture plate of 293T cells (70%-80% confluent) was transfected with 2 μg of pLenti_DDB1_miniTurbo_V5 or pLenti_CDK12_miniTurbo_V5 using Lipofectamine 2000 (Invitrogen, 11668019). […] Eluates were analyzed by WB. Quantification was performed with ImageJ.

T1 sequence (Q9NYV4 whole entry): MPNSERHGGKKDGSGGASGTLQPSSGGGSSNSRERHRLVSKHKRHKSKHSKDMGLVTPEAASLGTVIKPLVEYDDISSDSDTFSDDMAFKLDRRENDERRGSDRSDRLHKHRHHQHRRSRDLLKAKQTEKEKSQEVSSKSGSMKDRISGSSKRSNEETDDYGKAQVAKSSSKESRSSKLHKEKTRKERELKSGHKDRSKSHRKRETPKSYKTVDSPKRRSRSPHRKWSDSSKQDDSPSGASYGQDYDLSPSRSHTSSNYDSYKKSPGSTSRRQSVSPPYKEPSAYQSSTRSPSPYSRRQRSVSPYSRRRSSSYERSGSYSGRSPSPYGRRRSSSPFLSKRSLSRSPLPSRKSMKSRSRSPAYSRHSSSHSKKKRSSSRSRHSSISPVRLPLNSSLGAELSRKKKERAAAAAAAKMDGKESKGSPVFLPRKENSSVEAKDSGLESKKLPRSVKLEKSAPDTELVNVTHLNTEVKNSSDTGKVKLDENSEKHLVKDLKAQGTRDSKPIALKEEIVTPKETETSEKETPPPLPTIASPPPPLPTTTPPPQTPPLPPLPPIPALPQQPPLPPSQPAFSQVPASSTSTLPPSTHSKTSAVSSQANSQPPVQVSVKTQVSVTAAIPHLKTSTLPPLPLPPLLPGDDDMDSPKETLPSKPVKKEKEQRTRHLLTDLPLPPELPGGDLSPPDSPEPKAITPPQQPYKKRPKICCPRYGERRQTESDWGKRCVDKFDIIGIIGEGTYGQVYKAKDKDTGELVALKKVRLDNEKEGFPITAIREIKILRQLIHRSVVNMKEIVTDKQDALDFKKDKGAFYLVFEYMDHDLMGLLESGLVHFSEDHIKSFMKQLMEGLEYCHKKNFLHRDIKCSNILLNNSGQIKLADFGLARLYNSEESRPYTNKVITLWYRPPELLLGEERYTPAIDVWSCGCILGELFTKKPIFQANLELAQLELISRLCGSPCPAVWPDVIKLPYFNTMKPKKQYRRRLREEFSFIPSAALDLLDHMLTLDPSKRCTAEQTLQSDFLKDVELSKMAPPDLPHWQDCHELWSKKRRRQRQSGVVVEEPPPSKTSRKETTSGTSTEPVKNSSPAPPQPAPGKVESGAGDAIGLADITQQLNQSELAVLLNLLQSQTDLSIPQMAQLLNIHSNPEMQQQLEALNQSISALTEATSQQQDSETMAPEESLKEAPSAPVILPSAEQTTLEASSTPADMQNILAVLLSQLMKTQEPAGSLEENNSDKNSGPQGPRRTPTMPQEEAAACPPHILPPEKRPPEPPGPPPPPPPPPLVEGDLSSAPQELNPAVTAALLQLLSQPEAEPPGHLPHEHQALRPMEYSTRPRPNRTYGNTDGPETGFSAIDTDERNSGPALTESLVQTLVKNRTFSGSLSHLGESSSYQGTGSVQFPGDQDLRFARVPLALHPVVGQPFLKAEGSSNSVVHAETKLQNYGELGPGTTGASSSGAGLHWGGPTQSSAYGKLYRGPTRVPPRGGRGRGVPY
T1 sequence (O75909 whole entry partner): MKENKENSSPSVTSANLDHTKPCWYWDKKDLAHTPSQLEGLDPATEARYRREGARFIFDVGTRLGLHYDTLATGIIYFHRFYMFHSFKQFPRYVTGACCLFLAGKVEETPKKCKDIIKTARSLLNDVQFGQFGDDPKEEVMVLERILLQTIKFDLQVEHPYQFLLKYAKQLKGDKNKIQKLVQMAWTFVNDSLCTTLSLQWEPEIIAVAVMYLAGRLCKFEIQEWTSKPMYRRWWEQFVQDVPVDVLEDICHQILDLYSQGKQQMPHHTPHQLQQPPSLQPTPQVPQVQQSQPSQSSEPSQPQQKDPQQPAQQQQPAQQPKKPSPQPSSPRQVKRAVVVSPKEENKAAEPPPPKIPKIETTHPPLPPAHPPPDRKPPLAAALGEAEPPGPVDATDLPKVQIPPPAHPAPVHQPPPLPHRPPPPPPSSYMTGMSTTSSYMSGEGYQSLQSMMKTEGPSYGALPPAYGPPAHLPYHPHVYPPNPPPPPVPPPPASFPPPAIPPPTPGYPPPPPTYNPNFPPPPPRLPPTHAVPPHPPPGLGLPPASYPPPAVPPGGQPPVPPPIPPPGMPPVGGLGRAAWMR
T1 sequence (Q16531 whole entry): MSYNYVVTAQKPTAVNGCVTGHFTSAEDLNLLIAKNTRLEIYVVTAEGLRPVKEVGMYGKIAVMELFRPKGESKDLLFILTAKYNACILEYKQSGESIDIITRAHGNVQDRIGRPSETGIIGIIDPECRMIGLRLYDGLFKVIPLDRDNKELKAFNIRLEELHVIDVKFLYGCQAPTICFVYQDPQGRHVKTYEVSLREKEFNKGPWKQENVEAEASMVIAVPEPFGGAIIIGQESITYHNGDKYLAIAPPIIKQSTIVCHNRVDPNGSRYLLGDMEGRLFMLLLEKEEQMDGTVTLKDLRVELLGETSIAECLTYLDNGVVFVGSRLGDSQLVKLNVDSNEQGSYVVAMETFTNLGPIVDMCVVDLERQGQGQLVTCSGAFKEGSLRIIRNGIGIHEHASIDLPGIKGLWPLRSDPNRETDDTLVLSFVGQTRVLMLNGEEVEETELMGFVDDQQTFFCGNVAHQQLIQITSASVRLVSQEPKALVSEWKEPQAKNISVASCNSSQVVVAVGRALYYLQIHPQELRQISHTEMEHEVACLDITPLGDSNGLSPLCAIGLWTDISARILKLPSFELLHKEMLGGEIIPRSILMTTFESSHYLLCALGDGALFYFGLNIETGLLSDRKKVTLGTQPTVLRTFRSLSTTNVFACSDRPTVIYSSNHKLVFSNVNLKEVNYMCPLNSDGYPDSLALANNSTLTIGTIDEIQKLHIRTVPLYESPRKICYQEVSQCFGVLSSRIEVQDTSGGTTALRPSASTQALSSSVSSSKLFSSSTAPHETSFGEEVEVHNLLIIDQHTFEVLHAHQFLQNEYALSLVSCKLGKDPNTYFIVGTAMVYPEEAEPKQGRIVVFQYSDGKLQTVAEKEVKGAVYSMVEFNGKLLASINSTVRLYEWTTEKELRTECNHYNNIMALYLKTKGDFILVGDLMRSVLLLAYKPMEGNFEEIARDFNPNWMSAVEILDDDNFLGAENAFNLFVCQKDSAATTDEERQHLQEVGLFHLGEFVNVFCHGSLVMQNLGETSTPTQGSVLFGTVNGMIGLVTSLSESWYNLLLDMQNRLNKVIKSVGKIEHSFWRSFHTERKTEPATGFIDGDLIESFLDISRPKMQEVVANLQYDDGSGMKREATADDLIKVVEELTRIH

For `O=C(CSc1nnc2c(n1)[nH]c1ccccc12)Nc1ccc(Cl)cn1` [IC020772.1], the “drug-induced CDK12-DDB1 proximity (biotin labeling)” value is on record as “CDK12 interactions with DDB1 were exclusively identified in the presence of IC020772.1”.
